≈ marks a conversion by molar mass, not a printed value.
What was measured:
Cryptococcus neoformans = experiment: Antifungal activity against azole-sensitive Cryptococcus neoformans H99 after 72 hrs by spectrophotometry-based serial microdilution method; assay type: functional, var grubii H99
Candida albicans [1] = experiment: Antifungal activity against azole-sensitive Candida albicans SC5314 after 48 hrs by spectrophotometry-based serial microdilution method; assay type: functional
Candida tropicalis = experiment: Antifungal activity against azole-resistant Candida tropicalis 5008 after 48 hrs by spectrophotometry-based serial microdilution method; assay type: functional; conditions: Candida tropicalis, 5008, 48 h
Candida albicans [2] = experiment: Antifungal activity against azole-resistant Candida albicans 7781 after 48 hrs by spectrophotometry-based serial microdilution method; assay type: functional; conditions: Candida albicans, 7781, 48 h
Candida albicans [3] = experiment: Antifungal activity against azole-resistant Candida albicans 0304103 after 48 hrs by spectrophotometry-based serial microdilution method; assay type: functional; conditions: Candida albicans, 0304103, 48 h
Candida albicans [4] = experiment: Antifungal activity against azole-resistant Candida albicans 4108 after 48 hrs by spectrophotometry-based serial microdilution method; assay type: functional; conditions: Candida albicans, 4108, 48 h
[5] = Cryptococcus neoformans, var grubii H99 , 72 h, read-out: MIC80
[6] = Candida albicans, SC5314, 48 h, read-out: MIC80

Structure (SMILES)	MIC80 (Cryptococcus neoformans; [5])	MIC80 (Candida albicans [1]; [6])	MIC80 (Candida tropicalis)	MIC80 (Candida albicans [2])	MIC80 (Candida albicans [3])	MIC80 (Candida albicans [4])	MIC80 (Cryptococcus neoformans)	MIC80 (Candida albicans [1])
CN(Cc1ccc(-n2cnn(CCOc3ccc(CC(=O)NO)cc3)c2=O)cc1)CC(O)(Cn1cncn1)c1ccc(F)cc1F (racemic)	4 µg/mL (≈ 6.3 µM)	2 µg/mL (≈ 3.15 µM)	8 µg/mL (≈ 12.6 µM)	4 µg/mL (≈ 6.3 µM)	4 µg/mL (≈ 6.3 µM)	32 µg/mL (≈ 50.4 µM)		
CN(Cc1ccc(OCCCCCCC(=O)NO)cc1)CC(O)(Cn1cncn1)c1ccc(F)cc1F (racemic)	1 µg/mL (≈ 1.93 µM)	1 µg/mL (≈ 1.93 µM)	2 µg/mL (≈ 3.86 µM)	1 µg/mL (≈ 1.93 µM)	1 µg/mL (≈ 1.93 µM)	1 µg/mL (≈ 1.93 µM)		
CN(Cc1ccc(OCCCOc2ccc(CCC(=O)NO)cc2)cc1)CC(O)(Cn1cncn1)c1ccc(F)cc1F (racemic)	1 µg/mL (≈ 1.68 µM)	1 µg/mL (≈ 1.68 µM)	4 µg/mL (≈ 6.72 µM)	2 µg/mL (≈ 3.36 µM)	2 µg/mL (≈ 3.36 µM)	4 µg/mL (≈ 6.72 µM)		
CN(Cc1ccc(CCCC(=O)Nc2ccc(C(=O)NO)cc2)cc1)CC(O)(Cn1cncn1)c1ccc(F)cc1F (racemic)	8 µg/mL (≈ 13.8 µM)	4 µg/mL (≈ 6.91 µM)	8 µg/mL (≈ 13.8 µM)	8 µg/mL (≈ 13.8 µM)	16 µg/mL (≈ 27.7 µM)	32 µg/mL (≈ 55.3 µM)		
CN(Cc1ccc(-n2cnn(CCCCCCC(=O)NO)c2=O)cc1)CC(O)(Cn1cncn1)c1ccc(F)cc1F (racemic)	8 µg/mL (≈ 13.7 µM)	64 µg/mL (≈ 109 µM)	64 µg/mL (≈ 109 µM)	32 µg/mL (≈ 54.7 µM)	16 µg/mL (≈ 27.4 µM)	64 µg/mL (≈ 109 µM)		
CN(Cc1cccc(OCCCOc2ccc(CC(=O)NO)cc2)c1)CC(O)(Cn1cncn1)c1ccc(F)cc1F (racemic)	1 µg/mL (≈ 1.72 µM)	2 µg/mL (≈ 3.44 µM)	2 µg/mL (≈ 3.44 µM)	2 µg/mL (≈ 3.44 µM)	4 µg/mL (≈ 6.88 µM)	2 µg/mL (≈ 3.44 µM)		
CC(C)N(Cc1ccc(OCCCOc2ccc(CC(=O)NO)cc2)cc1)CC(O)(Cn1cncn1)c1ccc(F)cc1F (racemic)	2 µg/mL (≈ 3.28 µM)	2 µg/mL (≈ 3.28 µM)	4 µg/mL (≈ 6.56 µM)	2 µg/mL (≈ 3.28 µM)	2 µg/mL (≈ 3.28 µM)	4 µg/mL (≈ 6.56 µM)		
CN(Cc1ccc(-n2cnn(CCCC(=O)NO)c2=O)cc1)CC(O)(Cn1cncn1)c1ccc(F)cc1F (racemic)	2 µg/mL (≈ 3.69 µM)	8 µg/mL (≈ 14.7 µM)	8 µg/mL (≈ 14.7 µM)	32 µg/mL (≈ 59 µM)	64 µg/mL (≈ 118 µM)	8 µg/mL (≈ 14.7 µM)		
CN(Cc1ccc(OCCCCC(=O)NO)cc1)CC(O)(Cn1cncn1)c1ccc(F)cc1F (racemic)	2 µg/mL (≈ 4.09 µM)	2 µg/mL (≈ 4.09 µM)	8 µg/mL (≈ 16.3 µM)	2 µg/mL (≈ 4.09 µM)	2 µg/mL (≈ 4.09 µM)	8 µg/mL (≈ 16.3 µM)		
CN(Cc1ccc(CCCOc2ccc(CC(=O)NO)cc2)cc1)CC(O)(Cn1cncn1)c1ccc(F)cc1F (racemic)	0.5 µg/mL (≈ 0.884 µM)	0.125 µg/mL (≈ 0.221 µM)	2 µg/mL (≈ 3.54 µM)	0.25 µg/mL (≈ 0.442 µM)	0.5 µg/mL (≈ 0.884 µM)	0.5 µg/mL (≈ 0.884 µM)		
CN(Cc1ccccc1OCCCOc1ccc(CCC(=O)NO)cc1)CC(O)(Cn1cncn1)c1ccc(F)cc1F (racemic)	2 µg/mL (≈ 3.36 µM)	1 µg/mL (≈ 1.68 µM)	64 µg/mL (≈ 107 µM)	1 µg/mL (≈ 1.68 µM)	1 µg/mL (≈ 1.68 µM)	2 µg/mL (≈ 3.36 µM)		
O=C(Cc1ccc(OCCCc2ncn(CC(O)(Cn3cncn3)c3ccc(F)cc3F)n2)cc1)NO (racemic)	32 µg/mL (≈ 62.3 µM)	32 µg/mL (≈ 62.3 µM)	64 µg/mL (≈ 125 µM)	8 µg/mL (≈ 15.6 µM)	32 µg/mL (≈ 62.3 µM)	> 64 µg/mL		
CN(Cc1ccc(OCCCOc2ccc(C(=O)NO)cc2)cc1)CC(O)(Cn1cncn1)c1ccc(F)cc1F (racemic)	0.5 µg/mL (≈ 0.881 µM)	0.125 µg/mL (≈ 0.22 µM)	0.25 µg/mL (≈ 0.44 µM)	1 µg/mL (≈ 1.76 µM)	0.5 µg/mL (≈ 0.881 µM)	1 µg/mL (≈ 1.76 µM)		
O=C(NO)c1ccc(OCCCCc2ncnn2CC(O)(Cn2cncn2)c2ccc(F)cc2F)cc1 (racemic)	64 µg/mL (≈ 125 µM)	32 µg/mL (≈ 62.3 µM)	> 64 µg/mL	> 64 µg/mL	32 µg/mL (≈ 62.3 µM)	> 64 µg/mL		
O=C(NO)c1ccc(OCCCc2ncn(CC(O)(Cn3cncn3)c3ccc(F)cc3F)n2)cc1 (racemic)	64 µg/mL (≈ 128 µM)	8 µg/mL (≈ 16 µM)	64 µg/mL (≈ 128 µM)	8 µg/mL (≈ 16 µM)	64 µg/mL (≈ 128 µM)	32 µg/mL (≈ 64.1 µM)		
O=C(Cc1ccc(OCCCc2ncnn2CC(O)(Cn2cncn2)c2ccc(F)cc2F)cc1)NO (racemic)	64 µg/mL (≈ 125 µM)	8 µg/mL (≈ 15.6 µM)	> 64 µg/mL	16 µg/mL (≈ 31.2 µM)	32 µg/mL (≈ 62.3 µM)	> 64 µg/mL		
CCC(C)n1ncn(-c2ccc(N3CCN(c4ccc(OCC5COC(Cn6cncn6)(c6ccc(Cl)cc6Cl)O5)cc4)CC3)cc2)c1=O (stereo not given) [ITRACONAZOLE]	0.125 µg/mL (≈ 0.177 µM)	0.5 µg/mL (≈ 0.709 µM)	> 64 µg/mL	> 64 µg/mL	> 64 µg/mL	> 64 µg/mL		
C[C@@H](c1ncncc1F)[C@](O)(Cn1cncn1)c1ccc(F)cc1F [VORICONAZOLE]	0.0625 µg/mL (≈ 0.179 µM)	0.125 µg/mL (≈ 0.358 µM)	> 64 µg/mL	> 64 µg/mL	> 64 µg/mL	> 64 µg/mL		
O=C(CCCCCCC(=O)Nc1ccccc1)NO [VORINOSTAT]							>64 µg/mL	>64 µg/mL
